What was measured:
SK-MEL-28 = test: Antiproliferative activity against human SK-MEL-28 cells assessed as growth inhibition after 48 hrs by sulforhodamine B assay; assay type: functional; settings: SK-MEL-28, 48 h; for CC50: read-out: LC50 (the source's name)
[1] = Antiproliferative activity against human OVCAR5 cells assessed as growth inhibition after 48 hrs by sulforhodamine B assay; assay type: functional; settings: OVCAR-5, 48 h; for CC50: read-out: LC50 (the source's name)
SN12C = test: Antiproliferative activity against human SN12C cells assessed as cell growth at 10^-4 M after 48 hrs by sulforhodamine B assay; assay type: functional; settings: read-out: Activity
[2] = Antiproliferative activity against human UACC257 cells assessed as growth inhibition after 48 hrs by sulforhodamine B assay; assay type: functional; settings: UACC-257, 48 h; for CC50: read-out: LC50 (the source's name)
T47D = test: Antiproliferative activity against human T47D cells assessed as cell growth at 10^-4 M after 48 hrs by sulforhodamine B assay; assay type: functional; settings: read-out: Activity
786-0 = test: Antiproliferative activity against human 786-0 cells assessed as growth inhibition after 48 hrs by sulforhodamine B assay; assay type: functional; settings: 786-0, 48 h
[3] = Antiproliferative activity against human SF295 cells assessed as cell growth at 10^-6 M after 48 hrs by sulforhodamine B assay; assay type: functional; settings: SF-295, 48 h, read-out: Activity
SK-MEL-2 [4] = test: Antiproliferative activity against human SK-MEL-2 cells assessed as cell growth at 10^-7 M after 48 hrs by sulforhodamine B assay; assay type: functional; settings: SK-MEL-2, 48 h, read-out: Activity
M14 = test: Antiproliferative activity against human M14 cells assessed as cell growth at 10^-4 M after 48 hrs by sulforhodamine B assay; assay type: functional; settings: M14, 48 h, read-out: Activity
[5] = biological target: Voltage-gated inwardly rectifying potassium channel KCNH2 (Homo sapiens, UniProt Q12809); test: Inhibition of human ERG assessed as reduction in channel current by automated patch-clamp electrophysiology assay
CCRF-CEM = test: Antiproliferative activity against human CCRF-CEM cells assessed as cell growth at 10^-8 M after 48 hrs by sulforhodamine B assay; assay type: functional; settings: read-out: Activity
EKVX = test: Antiproliferative activity against human EKVX cells assessed as cell growth at 10^-7 M after 48 hrs by sulforhodamine B assay; assay type: functional; settings: read-out: Activity
MDA-MB-231 = test: Antiproliferative activity against human MDA-MB-231 cells assessed as growth inhibition after 48 hrs by sulforhodamine B assay; assay type: functional; settings: MDA-MB-231, 48 h; for CC50: read-out: LC50 (the source's name)
[6] = Antiproliferative activity against human SF268 cells assessed as cell growth at 10^-8 M after 48 hrs by sulforhodamine B assay; assay type: functional; settings: SF-268, 48 h, read-out: Activity
MDA-MB-435 = test: Antiproliferative activity against human MDA-MB-435 cells assessed as cell growth at 10^-4 M after 48 hrs by sulforhodamine B assay; assay type: functional; settings: MDA-MB-435, 48 h, read-out: Activity
[7] = Antiproliferative activity against human HCT15 cells assessed as cell growth at 10^-6 M after 48 hrs by sulforhodamine B assay; assay type: functional; settings: HCT-15, 48 h, read-out: Activity
[8] = Antiproliferative activity against human BT549 cells assessed as cell growth at 10^-4 M after 48 hrs by sulforhodamine B assay; assay type: functional; settings: BT-549, 48 h, read-out: Activity
[9] = Antiproliferative activity against human RPMI8226 cells assessed as cell growth at 10^-7 M after 48 hrs by sulforhodamine B assay; assay type: functional; settings: RPMI-8226, 48 h, read-out: Activity
[10] = Antiproliferative activity against human RPMI8226 cells assessed as cell growth at 10^-6 M after 48 hrs by sulforhodamine B assay; assay type: functional; settings: RPMI-8226, 48 h, read-out: Activity
[11] = Antiproliferative activity against human HCC2998 cells assessed as growth inhibition after 48 hrs by sulforhodamine B assay; assay type: functional; settings: HCC 2998, 48 h; for CC50: read-out: LC50 (the source's name)
[12] = Antiproliferative activity against human IGROV1 cells assessed as growth inhibition after 48 hrs by sulforhodamine B assay; assay type: functional; settings: IGROV-1, 48 h; for CC50: read-out: LC50 (the source's name)
U-251 = test: Antiproliferative activity against human U251 cells assessed as cell growth at 10^-6 M after 48 hrs by sulforhodamine B assay; assay type: functional; settings: U-251, 48 h, read-out: Activity
[13] = Antiproliferative activity against human UACC257 cells assessed as cell growth at 10^-8 M after 48 hrs by sulforhodamine B assay; assay type: functional; settings: UACC-257, 48 h, read-out: Activity
[14] = Antiproliferative activity against human SF295 cells assessed as cell growth at 10^-4 M after 48 hrs by sulforhodamine B assay; assay type: functional; settings: SF-295, 48 h, read-out: Activity
ACHN = test: Antiproliferative activity against human ACHN cells assessed as cell growth at 10^-8 M after 48 hrs by sulforhodamine B assay; assay type: functional; settings: read-out: Activity
[15] = Antiproliferative activity against human Hs 578T cells assessed as cell growth at 10^-6 M after 48 hrs by sulforhodamine B assay; assay type: functional; settings: read-out: Activity
MCF7 = test: Antiproliferative activity against human MCF7 cells assessed as cell growth at 10^-6 M after 48 hrs by sulforhodamine B assay; assay type: functional; settings: MCF7, 48 h, read-out: Activity
SR = test: Antiproliferative activity against human SR cells assessed as cell growth at 10^-4 M after 48 hrs by sulforhodamine B assay; assay type: functional; settings: read-out: Activity
[16] = Antiproliferative activity against human PC3 cells assessed as growth inhibition after 48 hrs by sulforhodamine B assay; assay type: functional; settings: PC-3, 48 h
[17] = Antiproliferative activity against human RPMI8226 cells assessed as cell growth at 10^-4 M after 48 hrs by sulforhodamine B assay; assay type: functional; settings: RPMI-8226, 48 h, read-out: Activity
[18] = Antiproliferative activity against human Caki1 cells assessed as growth inhibition after 48 hrs by sulforhodamine B assay; assay type: functional; settings: CAKI-1, 48 h; for CC50: read-out: LC50 (the source's name)
[19] = Antiproliferative activity against human OVCAR8 cells assessed as cell growth at 10^-7 M after 48 hrs by sulforhodamine B assay; assay type: functional; settings: OVCAR-8, 48 h, read-out: Activity
[20] = Antiproliferative activity against human HOP92 cells assessed as cell growth at 10^-8 M after 48 hrs by sulforhodamine B assay; assay type: functional; settings: HOP-92, 48 h, read-out: Activity
[21] = Antiproliferative activity against human SNB19 cells assessed as cell growth at 10^-8 M after 48 hrs by sulforhodamine B assay; assay type: functional; settings: SNB-19, 48 h, read-out: Activity
SK-MEL-2 [22] = test: Antiproliferative activity against human SK-MEL-2 cells assessed as cell growth at 10^-8 M after 48 hrs by sulforhodamine B assay; assay type: functional; settings: SK-MEL-2, 48 h, read-out: Activity
NCI-H522 = test: Antiproliferative activity against human NCI-H522 cells assessed as growth inhibition after 48 hrs by sulforhodamine B assay; assay type: functional; settings: NCI-H522, 48 h

Voltage-gated inwardly rectifying potassium channel KCNH2, sequence (Q12809 whole entry): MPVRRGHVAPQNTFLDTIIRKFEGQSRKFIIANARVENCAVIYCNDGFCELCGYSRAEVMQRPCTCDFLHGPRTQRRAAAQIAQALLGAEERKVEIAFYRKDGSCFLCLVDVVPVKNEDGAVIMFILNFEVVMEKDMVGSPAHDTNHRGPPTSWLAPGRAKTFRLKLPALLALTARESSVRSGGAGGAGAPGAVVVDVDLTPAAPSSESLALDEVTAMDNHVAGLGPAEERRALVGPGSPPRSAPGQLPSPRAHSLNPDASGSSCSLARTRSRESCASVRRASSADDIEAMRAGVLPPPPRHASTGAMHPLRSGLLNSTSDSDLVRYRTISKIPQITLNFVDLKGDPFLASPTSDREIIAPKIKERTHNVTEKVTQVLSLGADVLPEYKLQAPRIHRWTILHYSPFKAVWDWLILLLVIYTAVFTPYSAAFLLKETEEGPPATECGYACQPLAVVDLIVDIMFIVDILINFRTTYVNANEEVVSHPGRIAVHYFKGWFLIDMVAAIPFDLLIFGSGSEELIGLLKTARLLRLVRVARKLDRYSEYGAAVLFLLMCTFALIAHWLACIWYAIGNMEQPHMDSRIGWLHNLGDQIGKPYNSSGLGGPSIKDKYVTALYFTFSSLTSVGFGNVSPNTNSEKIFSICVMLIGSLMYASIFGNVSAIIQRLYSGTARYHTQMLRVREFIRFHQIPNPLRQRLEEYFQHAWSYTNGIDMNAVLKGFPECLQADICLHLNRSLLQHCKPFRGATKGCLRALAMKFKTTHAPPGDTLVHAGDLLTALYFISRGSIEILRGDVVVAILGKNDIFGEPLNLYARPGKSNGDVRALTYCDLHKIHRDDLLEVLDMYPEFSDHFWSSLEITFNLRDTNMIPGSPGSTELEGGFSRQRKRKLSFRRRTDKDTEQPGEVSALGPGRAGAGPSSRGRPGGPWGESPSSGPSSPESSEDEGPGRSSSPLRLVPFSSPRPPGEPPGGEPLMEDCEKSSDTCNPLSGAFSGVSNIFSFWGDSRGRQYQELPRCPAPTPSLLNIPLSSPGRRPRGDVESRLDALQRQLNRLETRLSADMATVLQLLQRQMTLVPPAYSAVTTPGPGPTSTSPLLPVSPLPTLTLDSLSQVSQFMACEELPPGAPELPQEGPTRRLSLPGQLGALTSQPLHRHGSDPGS

CNC(=O)c1cc(Oc2ccc3nc(NC(=O)Nc4cc(C(F)(F)F)cc(C(F)(F)F)c4)sc3c2)ccn1
GI50 (SK-MEL-28): 1.29 µM | TGI (SK-MEL-28): 2.93 µM | CC50 (SK-MEL-28): 6.62 µM | GI50 [1]: 1.55 µM | TGI [1]: 3.52 µM | CC50 [1]: 7.97 µM | growth at 100 µM (SN12C): -60% | GI50 [2]: 1.15 µM | TGI [2]: 2.62 µM | CC50 [2]: 5.95 µM | growth at 100 µM (T47D): -60% | GI50 (786-0): 1.42 µM | LC50 (786-0): 5.76 µM | TGI (786-0): 2.86 µM | growth at 1 µM [3]: 55% | growth at 0.1 µM (SK-MEL-2 [4]): 97% | growth at 100 µM (M14): -73% | IC50 [5]: > 100 µM | growth at 0.01 µM (CCRF-CEM): 111% | growth at 0.1 µM (EKVX): 92% | GI50 (MDA-MB-231): 0.829 µM | TGI (MDA-MB-231): 2.62 µM | CC50 (MDA-MB-231): 7.5 µM | growth at 0.01 µM [6]: 97% | growth at 100 µM (MDA-MB-435): -80% | growth at 1 µM [7]: 76% | growth at 100 µM [8]: -63% | growth at 0.1 µM [9]: 108% | growth at 1 µM [10]: 51% | GI50 [11]: 1.33 µM | TGI [11]: 3.23 µM | CC50 [11]: 7.85 µM | GI50 [12]: 1.25 µM | TGI [12]: 3.16 µM | CC50 [12]: 8.01 µM | growth at 1 µM (U-251): 51% | growth at 0.01 µM [13]: 102% | growth at 100 µM [14]: -71% | growth at 0.01 µM (ACHN): 94% | growth at 1 µM [15]: 73% | growth at 1 µM (MCF7): 52% | growth at 100 µM (SR): -53% | GI50 [16]: 0.611 µM | LC50 [16]: 7.07 µM | TGI [16]: 2.29 µM | growth at 100 µM [17]: -52% | GI50 [18]: 1.15 µM | TGI [18]: 2.69 µM | CC50 [18]: 6.28 µM | growth at 0.1 µM [19]: 102% | growth at 0.01 µM [20]: 102% | growth at 0.01 µM [21]: 99% | growth at 0.01 µM (SK-MEL-2 [22]): 90% | GI50 (NCI-H522): 0.534 µM | LC50 (concentration killing 50% of cells) (NCI-H522): 8.1 µM | TGI (NCI-H522): 2.28 µM

CNC(=O)c1cc(Oc2ccc3nc(NC(=O)c4cc(C(F)(F)F)cc(C(F)(F)F)c4)sc3c2)ccn1
GI50 (SK-MEL-28): 3.76 µM | TGI (SK-MEL-28): 43.7 µM | CC50 (SK-MEL-28): > 100 µM | GI50 [1]: 4.23 µM | TGI [1]: 25 µM | CC50 [1]: > 100 µM | growth at 100 µM (SN12C): -53% | GI50 [2]: 2.89 µM | TGI [2]: 8.12 µM | CC50 [2]: > 100 µM | growth at 100 µM (T47D): -40% | GI50 (786-0): 2.55 µM | LC50 (786-0): 45.2 µM | TGI (786-0): 8.07 µM | growth at 1 µM [3]: 83% | growth at 0.1 µM (SK-MEL-2 [4]): 97% | growth at 100 µM (M14): -38% | IC50 [5]: 48.4 µM | growth at 0.01 µM (CCRF-CEM): 99% | growth at 0.1 µM (EKVX): 91% | GI50 (MDA-MB-231): 2.88 µM | TGI (MDA-MB-231): 6.63 µM | CC50 (MDA-MB-231): 39.8 µM | growth at 0.01 µM [6]: 93% | growth at 100 µM (MDA-MB-435): -15% | growth at 1 µM [7]: 96% | growth at 100 µM [8]: -48% | growth at 0.1 µM [9]: 98% | growth at 1 µM [10]: 75% | GI50 [11]: 6.63 µM | TGI [11]: 24.7 µM | CC50 [11]: 79.4 µM | GI50 [12]: 4.26 µM | TGI [12]: 27 µM | CC50 [12]: > 100 µM | growth at 1 µM (U-251): 99% | growth at 0.01 µM [13]: 87% | growth at 100 µM [14]: -73% | growth at 0.01 µM (ACHN): 104% | growth at 1 µM [15]: 94% | growth at 1 µM (MCF7): 87% | growth at 100 µM (SR): -23% | GI50 [16]: 2.53 µM | LC50 [16]: > 100 µM | TGI [16]: 12.8 µM | growth at 100 µM [17]: 15% | GI50 [18]: 2.75 µM | TGI [18]: 10.7 µM | CC50 [18]: 62.3 µM | growth at 0.1 µM [19]: 102% | growth at 0.01 µM [20]: 91% | growth at 0.01 µM [21]: 98% | growth at 0.01 µM (SK-MEL-2 [22]): 88% | GI50 (NCI-H522): 2.82 µM | LC50 (concentration killing 50% of cells) (NCI-H522): 64.1 µM | TGI (NCI-H522): 8.77 µM

From ChEMBL document CHEMBL3797052 (Eur J Med Chem, 2016)
